Reference: publication PMC4702177, “Discovering new mTOR inhibitors for cancer treatment through virtual screening methods and in vitro assays” (Scientific Reports, 2016)
Where “and” joins values, the source holds several entries; their conditions need not be identical. Equal values may be shown once.

How the values were obtained:
[1] = target: T1, human recombinant mTOR kinase (Homo sapiens, UniProt P42345); assay: In vitro mTOR kinase assay (K-LISA ELISA, p70S6K-GST substrate); format: biochemical
T1 construct: a purified recombinant mTOR fragment (amino acids 1360-2549, CBA104-1KIT from Calbiochem); purchased Calbiochem CBA104-1KIT
Experimental: The mTOR kinase inhibitory activities of the 41 final virtual hits were determined using an ELISA-based activity assays that utilize a p70S6K-GST fusion protein as a specific mTOR substrate (see the Experimental Section for details). For the initial screening, all the activities were measured at a concentration of 10 μM.
mTOR activity was evaluated using a purified recombinant mTOR fragment (amino acids 1360-2549, CBA104-1KIT from Calbiochem). The K-LISA^TM mTOR activity kit is an ELISA-based activity assay for detection of phosphorylation of a p70S6K-GST fusion protein (a specific mTOR substrate) in the presence of ATP. The assay was optimized for use with mTOR as described in the Calbiochem protocol. The assay takes place in 96-well plates and can be divided into two phases: an mTOR kinase reaction phase and phosphorylated substrate detection phase.
In the kinase reaction phase, the following components were mixed in the same well: 5 μL of a solution containing 5 μg/mL mTOR substrate (recombinant p70S6K-GST fusion protein) in Tris-buffered saline (1 L TBS: sodium chloride 8.8 g, Tris Base 2.4 g, HCl 13 mL, Tween-20 10 ml, ddH2O), 5 μL ATP solution containing 20 mM ATP diluted in kinase assay buffer (pH 7.4, 0.01% Tween 20, 1 mM EDTA, 10 mM MgCl2, 1 mM DTT), […] of human recombinant mTOR kinase at the optimal concentration (80 ng/well) diluted in kinase assay buffer, and 5 μL of serial dilutions of inhibitors diluted in DMSO and kinase assay buffer. For each inhibitor concentration, the assay was run in triplicate. The final reaction volume was 100 μL per well, and samples incubated for 30 min at room temperature.
The kinase reaction was stopped by adding 10 μL kinase stop solution to each well. The phosphorylated substrate was detected using Anti-p70S6K-pT389 antibody, followed by detection with HRP-Antibody Conjugate and TMB Substrate. Then, ELISA stop solution was added to each well to stop the reaction, and relative mTOR inhibition activity was determined by reading the absorbance at dual wavelengths of 450/540 nm.

[2] = test system: mTORC1 (phosphorylation of p70S6K and 4E-BP1) in HeLa cells; assay: Western blot of mTORC1 activity; format: cell-based, human; conditions: 2.47 and 5.48 μM
Experimental: In vitro mTOR kinase assay confirmed that 17 did inhibit mTOR kinase activity (Table 1). The mTOR pathway is frequently activated in human cancers (e.g., HeLa and MCF-7). To assure compound 17 inhibits the mTOR pathway inside the cell, western blotting was employed to check the activity of mTORC1 (Complex 1) and mTORC2 (Complex 2). HeLa cell line was selected for western blot analysis after treatment with compound 17 at 2.47 and 5.48 μM; detailed results are shown in Fig. 8.
mTORC1 activity was evaluated by determining the phosphorylation level of its targets, p70S6K and 4E-BP1, in the HeLa cell line. […] Quantitative of the phosphorylation levels of p70SK6 and 4E-BP1 are […] with the concentration of 17 (Fig. 8).
HeLa cells were cultured in a six-well plate in the presence of compound 17 for 48 h. Samples were prepared by lysing PBS-washed cells with RIPA buffer (Beyotime, Haimen, China) consisting of 1% Nonidet P-40, 0.5% sodium deoxycholate, 0.1% SDS, and 50 mM Tris-HCl, pH 7.4, supplemented with NaF, NaVO4, EDTA and a protease inhibitor cocktail (Roche). Proteins were subjected to SDS-PAGE gel electrophoresis and transferred onto a polyvinylidene difluoride membrane (Hybond-P; GE Healthcare Life Sciences, Piscataway, NJ). […] The densitometry of each band was quantified by FluorChem 8000 (AlphaInnotech, San Leandro, CA).

[3] = target: DNA-PK (Homo sapiens, UniProt P78527); assay: SelectScreen kinase profiling; format: biochemical; conditions: mean ± SD of triplicate
Description: (§1) To characterize the kinase selectivity of compound 17, we profiled its ability to bind to a panel of 24 structurally related kinases using the SelectScreen Kinase Profiling Service (Life Technologies Corporation, Madison, WI).

[4] = target: PDK1 (Homo sapiens, UniProt O15530); assay: SelectScreen kinase profiling; format: biochemical; conditions: mean ± SD of triplicate
Description: as §1

[5] = target: PIK3C3 (hVPS34) (Homo sapiens, UniProt Q8NEB9); assay: SelectScreen kinase profiling; format: biochemical; conditions: mean ± SD of triplicate
Description: as §1

[6] = target: PIK3CA/PIK3R1 (p110 alpha/p85 alpha) (Homo sapiens, UniProt P42336); assay: SelectScreen kinase profiling; format: biochemical; conditions: mean ± SD of triplicate
Description: as §1

[7] = target: PIK3CG (p110 gamma) (Homo sapiens, UniProt P48736); assay: SelectScreen kinase profiling; format: biochemical; conditions: mean ± SD of triplicate
Description: as §1

[8] = target: PRKCA (PKC alpha) (Homo sapiens, UniProt P17252); assay: SelectScreen kinase profiling; format: biochemical; conditions: mean ± SD of triplicate
Description: as §1

[9] = target: RPS6KB1 (p70S6K) (Homo sapiens, UniProt P23443); assay: SelectScreen kinase profiling; format: biochemical; conditions: mean ± SD of triplicate
Description: as §1

T1 sequence (P42345 1360-2549): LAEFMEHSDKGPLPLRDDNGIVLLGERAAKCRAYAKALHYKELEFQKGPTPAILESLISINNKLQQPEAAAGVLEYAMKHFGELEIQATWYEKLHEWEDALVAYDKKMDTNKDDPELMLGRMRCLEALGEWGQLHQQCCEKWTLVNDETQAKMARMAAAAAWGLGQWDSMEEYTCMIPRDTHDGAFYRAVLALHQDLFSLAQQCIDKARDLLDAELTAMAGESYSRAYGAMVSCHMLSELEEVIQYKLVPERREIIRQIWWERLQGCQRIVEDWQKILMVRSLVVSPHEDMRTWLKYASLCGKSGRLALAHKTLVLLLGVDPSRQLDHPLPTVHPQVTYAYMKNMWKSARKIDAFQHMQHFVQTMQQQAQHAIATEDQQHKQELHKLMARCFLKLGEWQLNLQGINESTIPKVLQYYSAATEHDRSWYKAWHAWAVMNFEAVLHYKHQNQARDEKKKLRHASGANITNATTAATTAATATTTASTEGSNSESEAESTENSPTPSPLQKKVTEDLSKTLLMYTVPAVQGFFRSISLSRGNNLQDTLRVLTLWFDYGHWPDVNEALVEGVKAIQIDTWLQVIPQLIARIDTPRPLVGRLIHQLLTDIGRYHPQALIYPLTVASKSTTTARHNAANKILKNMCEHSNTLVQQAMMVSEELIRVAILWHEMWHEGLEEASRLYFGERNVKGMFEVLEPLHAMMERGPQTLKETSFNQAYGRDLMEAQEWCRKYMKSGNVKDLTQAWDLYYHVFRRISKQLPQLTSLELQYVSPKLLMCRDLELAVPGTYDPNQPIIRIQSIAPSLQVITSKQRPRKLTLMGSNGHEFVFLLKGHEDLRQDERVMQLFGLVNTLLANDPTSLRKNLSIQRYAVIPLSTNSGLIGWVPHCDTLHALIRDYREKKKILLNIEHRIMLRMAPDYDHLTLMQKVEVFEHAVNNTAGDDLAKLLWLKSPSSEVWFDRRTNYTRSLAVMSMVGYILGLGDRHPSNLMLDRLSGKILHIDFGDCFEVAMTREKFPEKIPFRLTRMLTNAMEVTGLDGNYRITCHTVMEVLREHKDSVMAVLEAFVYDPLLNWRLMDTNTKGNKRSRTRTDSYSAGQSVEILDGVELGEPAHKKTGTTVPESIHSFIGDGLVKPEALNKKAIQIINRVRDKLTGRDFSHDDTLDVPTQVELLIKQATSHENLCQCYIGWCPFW
RPS6KB1 (p70S6K), sequence (P23443 whole entry): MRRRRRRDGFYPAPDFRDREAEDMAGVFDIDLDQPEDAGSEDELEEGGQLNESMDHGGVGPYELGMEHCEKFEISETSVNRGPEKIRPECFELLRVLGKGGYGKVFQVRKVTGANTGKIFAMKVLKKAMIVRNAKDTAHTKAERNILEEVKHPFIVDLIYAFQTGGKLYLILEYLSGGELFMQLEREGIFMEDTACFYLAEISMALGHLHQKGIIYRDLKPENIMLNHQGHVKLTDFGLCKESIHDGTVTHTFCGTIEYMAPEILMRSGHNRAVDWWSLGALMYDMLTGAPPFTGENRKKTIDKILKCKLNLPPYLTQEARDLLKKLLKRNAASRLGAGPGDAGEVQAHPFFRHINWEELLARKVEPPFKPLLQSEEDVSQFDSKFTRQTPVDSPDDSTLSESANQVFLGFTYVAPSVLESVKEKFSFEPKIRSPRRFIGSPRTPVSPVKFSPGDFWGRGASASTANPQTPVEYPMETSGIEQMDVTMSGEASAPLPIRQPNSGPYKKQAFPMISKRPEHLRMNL
PDK1, sequence (O15530 whole entry): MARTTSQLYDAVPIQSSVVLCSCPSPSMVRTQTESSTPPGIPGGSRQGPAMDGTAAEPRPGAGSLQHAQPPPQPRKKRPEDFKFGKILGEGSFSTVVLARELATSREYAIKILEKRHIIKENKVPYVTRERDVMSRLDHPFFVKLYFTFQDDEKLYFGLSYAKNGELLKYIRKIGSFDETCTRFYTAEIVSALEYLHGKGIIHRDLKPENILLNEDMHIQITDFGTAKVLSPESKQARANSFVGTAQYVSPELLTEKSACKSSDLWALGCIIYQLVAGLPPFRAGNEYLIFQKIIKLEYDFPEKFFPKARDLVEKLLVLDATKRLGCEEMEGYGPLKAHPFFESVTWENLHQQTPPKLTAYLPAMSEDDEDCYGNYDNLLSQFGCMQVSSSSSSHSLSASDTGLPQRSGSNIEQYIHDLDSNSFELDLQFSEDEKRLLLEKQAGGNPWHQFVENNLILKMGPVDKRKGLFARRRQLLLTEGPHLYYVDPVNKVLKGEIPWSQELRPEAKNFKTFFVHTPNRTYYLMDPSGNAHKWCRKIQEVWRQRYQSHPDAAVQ
PIK3CG (p110 gamma), sequence (P48736 whole entry): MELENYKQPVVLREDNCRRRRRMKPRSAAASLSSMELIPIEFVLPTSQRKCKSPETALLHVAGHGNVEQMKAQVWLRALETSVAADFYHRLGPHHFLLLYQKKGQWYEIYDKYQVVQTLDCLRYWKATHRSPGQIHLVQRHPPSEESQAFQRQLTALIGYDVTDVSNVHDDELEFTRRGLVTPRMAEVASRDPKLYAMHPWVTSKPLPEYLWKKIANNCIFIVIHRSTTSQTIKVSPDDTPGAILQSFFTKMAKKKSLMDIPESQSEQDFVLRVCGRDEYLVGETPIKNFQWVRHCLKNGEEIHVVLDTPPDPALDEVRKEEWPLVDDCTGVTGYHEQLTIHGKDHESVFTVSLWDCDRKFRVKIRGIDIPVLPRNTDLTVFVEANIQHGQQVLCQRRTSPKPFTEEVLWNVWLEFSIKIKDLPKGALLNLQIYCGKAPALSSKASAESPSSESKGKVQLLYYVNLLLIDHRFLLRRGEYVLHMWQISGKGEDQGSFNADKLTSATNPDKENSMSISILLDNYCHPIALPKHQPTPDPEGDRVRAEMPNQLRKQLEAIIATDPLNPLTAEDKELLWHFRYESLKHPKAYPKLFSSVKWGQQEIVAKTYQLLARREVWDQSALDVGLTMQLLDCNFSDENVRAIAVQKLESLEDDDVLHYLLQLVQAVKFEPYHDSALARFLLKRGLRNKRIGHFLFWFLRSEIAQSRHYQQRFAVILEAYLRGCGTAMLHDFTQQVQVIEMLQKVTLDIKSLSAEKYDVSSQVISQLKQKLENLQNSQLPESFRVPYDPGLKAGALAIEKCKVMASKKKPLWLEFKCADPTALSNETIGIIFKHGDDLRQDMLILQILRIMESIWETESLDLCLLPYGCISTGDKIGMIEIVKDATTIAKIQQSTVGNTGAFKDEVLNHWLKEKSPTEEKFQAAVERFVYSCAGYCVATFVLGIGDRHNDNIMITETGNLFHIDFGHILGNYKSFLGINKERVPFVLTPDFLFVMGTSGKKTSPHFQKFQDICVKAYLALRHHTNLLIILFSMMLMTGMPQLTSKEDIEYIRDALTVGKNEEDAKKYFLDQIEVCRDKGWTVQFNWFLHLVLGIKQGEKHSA
PIK3C3 (hVPS34), sequence (Q8NEB9 whole entry): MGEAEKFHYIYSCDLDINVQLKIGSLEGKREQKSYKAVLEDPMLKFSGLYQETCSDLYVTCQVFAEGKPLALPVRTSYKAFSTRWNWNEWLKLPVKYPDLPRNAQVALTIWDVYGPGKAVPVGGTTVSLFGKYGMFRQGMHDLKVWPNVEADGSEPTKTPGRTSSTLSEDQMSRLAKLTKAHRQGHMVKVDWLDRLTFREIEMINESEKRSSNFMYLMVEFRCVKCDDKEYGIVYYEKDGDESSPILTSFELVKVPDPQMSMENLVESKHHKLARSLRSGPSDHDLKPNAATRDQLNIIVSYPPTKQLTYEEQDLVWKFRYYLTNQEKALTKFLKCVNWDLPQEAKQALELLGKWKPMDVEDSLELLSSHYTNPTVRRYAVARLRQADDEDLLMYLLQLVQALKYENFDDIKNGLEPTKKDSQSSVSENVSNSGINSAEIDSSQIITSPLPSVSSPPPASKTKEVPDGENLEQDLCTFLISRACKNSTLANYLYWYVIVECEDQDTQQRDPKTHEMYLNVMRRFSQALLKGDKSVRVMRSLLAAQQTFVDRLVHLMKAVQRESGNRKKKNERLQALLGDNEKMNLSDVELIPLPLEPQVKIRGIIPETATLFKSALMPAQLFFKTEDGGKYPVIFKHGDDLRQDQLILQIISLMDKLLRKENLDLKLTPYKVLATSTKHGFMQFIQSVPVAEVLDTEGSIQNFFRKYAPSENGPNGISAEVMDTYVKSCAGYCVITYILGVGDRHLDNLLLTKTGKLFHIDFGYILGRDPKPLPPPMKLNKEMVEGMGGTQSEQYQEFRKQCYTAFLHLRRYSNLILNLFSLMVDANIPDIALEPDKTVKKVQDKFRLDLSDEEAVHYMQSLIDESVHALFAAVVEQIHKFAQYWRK

Nc1nn2c(nc(N)c3c(N)n[nH]c32)c1/N=N/c1ccccc1 [Compound 17]
inhibition at 10 µM ([1]; 10 μM, triplicate measurements): 61% | IC50 ([1]; mean ± SD of triplicate measurements): < 10 µM and 7.59 µM | phosphorylation level of 4E-BP1 [2]: suppressed | phosphorylation level of p70S6K [2]: suppressed | inhibition at 10 µM [3]: 61.9 ± 6.43% | inhibition at 10 µM [4]: 3.94 ± 3.24% | inhibition at 10 µM [5]: -6.75 ± 8.78% | inhibition at 10 µM [6]: 56.4 ± 4.16% | inhibition at 10 µM [7]: 40.9 ± 1.19% | inhibition at 10 µM [8]: 9.84 ± 3.05% | inhibition at 10 µM [9]: -1.25 ± 1.53%
